Measured values from ChEMBL document CHEMBL4184165, “Unique arginine array improves cytosolic localization of hydrocarbon-stapled peptides” (Bioorg Med Chem, 2018).
Where a SMILES comes first, the peptide text is derived from it. Bridges are numbered along the chain shown (N, C = ends). [ ]: non-standard residue; d: D form. The star is where a group is joined. X1 = CCN(CC)c1ccc2c(-c3ccc(S(=O)(=O)*)cc3S(=O)(=O)[O-])c3ccc(=[N+](CC)CC)cc-3oc2c1; R8 = C=CCCCCCC[C@@](C)(N)C(=O)O; S5 = C=CCCC[C@](C)(N)C(=O)O; βAla = NCCC(=O)O

Legend:
[1] = test system: SJSA-1; test: Cytotoxicity in human SJSA1 cells over expressing human DM2 after 24 hrs by CellTiter-Glo assay; format: functional, cell-based; conditions: SJSA-1, 24 h
[2] = Drug uptake in cytosol of human HeLa cells at 500 nM after 30 mins by FCS analysis relative to control; format: ADME, subcellular; conditions: 0.5 h, 0.5 µM
[3] = Drug uptake in cytosol of human HeLa cells at 500 nM after 30 mins by FCS analysis; format: ADME, subcellular; conditions: 0.5 h, 0.5 µM

Drug uptake [2] | Structure (SMILES) | EC50 [1] | Drug uptake [3]
 | CC(=O)N[C@@H](CCCNC(=N)N)C(=O)N[C@@H](CCCNC(=N)N)C(=O)N[C@@H](CCCNC(=N)N)C(=O)N[C@@H](CCCNC(=N)N)C(=O)N[C@@H](CCCNC(=N)N)C(=O)N[C@@H](Cc1ccccc1)C(=O)N[C@]1(C)CCCCCC/C=C/CCC[C@@](C)(C(=O)N[C@@H](CCC(=O)O)C(=O)N[C@@H](CC(N)=O)C(N)=O)NC(=O)[C@H](CC(C)C)NC(=O)[C@H](CC(C)C)NC(=O)[C@H](CCCCN)NC(=O)[C@H](Cc2c[nH]c3ccccc23)NC(=O)[C@H](CC(C)C)NC(=O)[C@H](CC(=O)O)NC1=O (Ac-RRRRRF[R8]DLWKLL[S5]EN-NH2; staple (E) 7-14) | 1.6 µM | 
 | CC(=O)N[C@@H](CCCNC(=N)N)C(=O)N[C@@H](CO)C(=O)N[C@@H](CCC(N)=O)C(=O)N[C@@H](CCC(=O)O)C(=O)N[C@@H](CCCNC(=N)N)C(=O)N[C@@H](Cc1ccccc1)C(=O)N[C@]1(C)CCCCCC/C=C/CCC[C@@](C)(C(=O)N[C@@H](CCC(=O)O)C(=O)N[C@@H](CC(N)=O)C(N)=O)NC(=O)[C@H](CC(C)C)NC(=O)[C@H](CCCNC(=N)N)NC(=O)[C@H](CCCNC(=N)N)NC(=O)[C@H](Cc2c[nH]c3ccccc23)NC(=O)[C@H](CC(C)C)NC(=O)[C@H](CCCNC(=N)N)NC1=O (Ac-RSQERF[R8]RLWRRL[S5]EN-NH2; staple (E) 7-14) | 7.2 µM | 
 | CC(=O)N[C@@H](CC(C)C)C(=O)N[C@@H](CO)C(=O)N[C@@H](CCC(N)=O)C(=O)N[C@@H](CCC(=O)O)C(=O)N[C@H](C(=O)N[C@@H](Cc1ccccc1)C(=O)N[C@]1(C)CCCCCC/C=C/CCC[C@@](C)(C(=O)N[C@@H](CCCNC(=N)N)C(=O)N[C@@H](CCCNC(=N)N)C(N)=O)NC(=O)[C@H](CC(C)C)NC(=O)[C@H](CCCNC(=N)N)NC(=O)[C@H](CCCNC(=N)N)NC(=O)[C@H](Cc2c[nH]c3ccccc23)NC(=O)[C@H](CC(C)C)NC(=O)[C@H](CCCNC(=N)N)NC1=O)[C@@H](C)O (Ac-LSQETF[R8]RLWRRL[S5]RR-NH2; staple (E) 7-14) | 1.9 µM | 
 | CC(=O)N[C@@H](CCCNC(=N)N)C(=O)N[C@@H](CO)C(=O)N[C@@H](CCC(N)=O)C(=O)N[C@@H](CCCNC(=N)N)C(=O)N[C@@H](CCCNC(=N)N)C(=O)N[C@@H](Cc1ccccc1)C(=O)N[C@]1(C)CCCCCC/C=C/CCC[C@@](C)(C(=O)N[C@@H](CCC(=O)O)C(=O)N[C@@H](CC(N)=O)C(N)=O)NC(=O)[C@H](CC(C)C)NC(=O)[C@H](CC(C)C)NC(=O)[C@H](CCCNC(=N)N)NC(=O)[C@H](Cc2c[nH]c3ccccc23)NC(=O)[C@H](CC(=O)O)NC(=O)[C@H](CCCNC(=N)N)NC1=O (Ac-RSQRRF[R8]RDWRLL[S5]EN-NH2; staple (E) 7-14) | 1.9 µM | 
13.8% | CCN(CC)c1ccc2c(-c3ccc(S(=O)(=O)NCCC(=O)N[C@@H](CCCNC(=N)N)C(=O)N[C@@H](CO)C(=O)N[C@@H](CCC(N)=O)C(=O)N[C@@H](CCC(=O)O)C(=O)N[C@@H](CCCNC(=N)N)C(=O)N[C@@H](Cc4ccccc4)C(=O)N[C@]4(C)CCCCCC/C=C/CCC[C@@](C)(C(=O)N[C@@H](CCC(=O)O)C(=O)N[C@@H](CC(N)=O)C(N)=O)NC(=O)[C@H](CC(C)C)NC(=O)[C@H](CCCNC(=N)N)NC(=O)[C@H](CCCNC(=N)N)NC(=O)[C@H](Cc5c[nH]c6ccccc56)NC(=O)[C@H](CC(C)C)NC(=O)[C@H](CCCNC(=N)N)NC4=O)cc3S(=O)(=O)[O-])c3ccc(=[N+](CC)CC)cc-3oc2c1 ({X1-βAla}-RSQERF[R8]RLWRRL[S5]EN-NH2; staple (E) 7-14) |  | 69 nM
 | CC(=O)N[C@@H](CC(C)C)C(=O)N[C@@H](CCCNC(=N)N)C(=O)N[C@@H](CCCNC(=N)N)C(=O)N[C@@H](CCC(=O)O)C(=O)N[C@H](C(=O)N[C@@H](Cc1ccccc1)C(=O)N[C@]1(C)CCCCCC/C=C/CCC[C@@](C)(C(=O)N[C@@H](CCCNC(=N)N)C(=O)N[C@@H](CC(N)=O)C(N)=O)NC(=O)[C@H](CC(C)C)NC(=O)[C@H](CCCNC(=N)N)NC(=O)[C@H](CCCCN)NC(=O)[C@H](Cc2c[nH]c3ccccc23)NC(=O)[C@H](CCCNC(=N)N)NC(=O)[C@H](CC(=O)O)NC1=O)[C@@H](C)O (Ac-LRRETF[R8]DRWKRL[S5]RN-NH2; staple (E) 7-14) | 7.7 µM | 
 | CC(=O)N[C@@H](CC(C)C)C(=O)N[C@@H](CCCNC(=N)N)C(=O)N[C@@H](CCCNC(=N)N)C(=O)N[C@@H](CCC(=O)O)C(=O)N[C@H](C(=O)N[C@@H](Cc1ccccc1)C(=O)N[C@]1(C)CCCCCC/C=C/CCC[C@@](C)(C(=O)N[C@@H](CCCNC(=N)N)C(=O)N[C@@H](CCCNC(=N)N)C(N)=O)NC(=O)[C@H](CC(C)C)NC(=O)[C@H](CCCNC(=N)N)NC(=O)[C@H](CCCCN)NC(=O)[C@H](Cc2c[nH]c3ccccc23)NC(=O)[C@H](CC(C)C)NC(=O)[C@H](CC(=O)O)NC1=O)[C@@H](C)O (Ac-LRRETF[R8]DLWKRL[S5]RR-NH2; staple (E) 7-14) | 3.2 µM | 
 | CC(=O)N[C@@H](CCC(N)=O)C(=O)N[C@@H](CO)C(=O)N[C@@H](CCC(N)=O)C(=O)N[C@@H](CCC(N)=O)C(=O)N[C@H](C(=O)N[C@@H](Cc1ccccc1)C(=O)N[C@]1(C)CCCCCC/C=C/CCC[C@@](C)(C(=O)N[C@@H](CCC(N)=O)C(=O)N[C@@H](CC(N)=O)C(N)=O)NC(=O)[C@H](CC(C)C)NC(=O)[C@H](CC(C)C)NC(=O)[C@H](CCCCN)NC(=O)[C@H](Cc2c[nH]c3ccccc23)NC(=O)[C@H](CC(C)C)NC(=O)[C@H](CC(N)=O)NC1=O)[C@@H](C)O (Ac-QSQQTF[R8]NLWKLL[S5]QN-NH2; staple (E) 7-14) | 10.2 µM | 
51.9% | CCN(CC)c1ccc2c(-c3ccc(S(=O)(=O)NCCC(=O)N[C@@H](CCC(N)=O)C(=O)N[C@@H](CO)C(=O)N[C@@H](CCC(N)=O)C(=O)N[C@@H](CCC(N)=O)C(=O)N[C@H](C(=O)N[C@@H](Cc4ccccc4)C(=O)N[C@]4(C)CCCCCC/C=C/CCC[C@@](C)(C(=O)N[C@@H](CCC(N)=O)C(=O)N[C@@H](CC(N)=O)C(N)=O)NC(=O)[C@H](CC(C)C)NC(=O)[C@H](CC(C)C)NC(=O)[C@H](CCCCN)NC(=O)[C@H](Cc5c[nH]c6ccccc56)NC(=O)[C@H](CC(C)C)NC(=O)[C@H](CC(N)=O)NC4=O)[C@@H](C)O)cc3S(=O)(=O)[O-])c3ccc(=[N+](CC)CC)cc-3oc2c1 ({X1-βAla}-QSQQTF[R8]NLWKLL[S5]QN-NH2; staple (E) 7-14) |  | 256 to 260 nM
 | CC(=O)N[C@@H](CC(C)C)C(=O)N[C@@H](CO)C(=O)N[C@@H](CCC(N)=O)C(=O)N[C@@H](CCC(=O)O)C(=O)N[C@H](C(=O)N[C@@H](C)C(=O)N[C@]1(C)CCCCCC/C=C/CCC[C@@](C)(C(=O)N[C@@H](CCCNC(=N)N)C(=O)N[C@@H](CCCNC(=N)N)C(N)=O)NC(=O)[C@H](CC(C)C)NC(=O)[C@H](CCCNC(=N)N)NC(=O)[C@H](CCCNC(=N)N)NC(=O)[C@H](Cc2c[nH]c3ccccc23)NC(=O)[C@H](CC(C)C)NC(=O)[C@H](CCCNC(=N)N)NC1=O)[C@@H](C)O (Ac-LSQETA[R8]RLWRRL[S5]RR-NH2; staple (E) 7-14) | 4.8 µM | 
 | CC(=O)N[C@@H](CCCNC(=N)N)C(=O)N[C@@H](CO)C(=O)N[C@@H](CCC(N)=O)C(=O)N[C@@H](CCC(=O)O)C(=O)N[C@@H](CCCNC(=N)N)C(=O)N[C@@H](Cc1ccccc1)C(=O)N[C@]1(C)CCCCCC/C=C/CCC[C@@](C)(C(=O)N[C@@H](CCCNC(=N)N)C(=O)N[C@@H](CCCNC(=N)N)C(N)=O)NC(=O)[C@H](CC(C)C)NC(=O)[C@H](CCCNC(=N)N)NC(=O)[C@H](CCCCN)NC(=O)[C@H](Cc2c[nH]c3ccccc23)NC(=O)[C@H](CC(C)C)NC(=O)[C@H](CC(=O)O)NC1=O (Ac-RSQERF[R8]DLWKRL[S5]RR-NH2; staple (E) 7-14) | 7.7 µM | 
 | CCN(CC)c1ccc2c(-c3ccc(S(=O)(=O)NCCC(=O)N[C@@H](CC(C)C)C(=O)N[C@@H](CO)C(=O)N[C@@H](CCC(N)=O)C(=O)N[C@@H](CCC(=O)O)C(=O)N[C@H](C(=O)N[C@@H](Cc4ccccc4)C(=O)N[C@]4(C)CCCCCC/C=C/CCC[C@@](C)(C(=O)N[C@@H](CCCNC(=N)N)C(=O)N[C@@H](CCCNC(=N)N)C(N)=O)NC(=O)[C@H](CC(C)C)NC(=O)[C@H](CCCNC(=N)N)NC(=O)[C@H](CCCNC(=N)N)NC(=O)[C@H](Cc5c[nH]c6ccccc56)NC(=O)[C@H](CC(C)C)NC(=O)[C@H](CCCNC(=N)N)NC4=O)[C@@H](C)O)cc3S(=O)(=O)[O-])c3ccc(=[N+](CC)CC)cc-3oc2c1 ({X1-βAla}-LSQETF[R8]RLWRRL[S5]RR-NH2; staple (E) 7-14) |  | 284 nM
 | COc1ccc(C2=N[C@@H](c3ccc(Cl)cc3)[C@@H](c3ccc(Cl)cc3)N2C(=O)N2CCNC(=O)C2)c(OC(C)C)c1 [NUTLIN-3] | 22.8 µM | 

Structure (SMILES) | Drug uptake [2] | EC50 [1] | Drug uptake [3]
CCN(CC)c1ccc2c(-c3ccc(S(=O)(=O)NCCC(=O)N[C@@H](CC(C)C)C(=O)N[C@@H](CO)C(=O)N[C@@H](CCC(N)=O)C(=O)N[C@@H](CCC(=O)O)C(=O)N[C@H](C(=O)N[C@@H](Cc4ccccc4)C(=O)N[C@]4(C)CCCCCC/C=C/CCC[C@@](C)(C(=O)N[C@@H](CCC(=O)O)C(=O)N[C@@H](CC(N)=O)C(N)=O)NC(=O)[C@H](CC(C)C)NC(=O)[C@H](CC(C)C)NC(=O)[C@H](CCCCN)NC(=O)[C@H](Cc5c[nH]c6ccccc56)NC(=O)[C@H](CC(C)C)NC(=O)[C@H](CC(=O)O)NC4=O)[C@@H](C)O)cc3S(=O)(=O)[O-])c3ccc(=[N+](CC)CC)cc-3oc2c1 | 12.4% |  | 62 nM
